Source: ChEMBL document CHEMBL1145821, “Dihydrofolate reductase mutant with exceptional resistance to methotrexate but not to trimetrexate” (J Med Chem, 2003)

What was measured:
Dihydrofolate reductase [1] = target: T1, Dihydrofolate reductase (Mus musculus, UniProt P00375); experiment: Combined effect of active site mutation F31A and F34A on inhibitory effect for F31A/F34A murine dihydrofolate reductase (DHFR)
Dihydrofolate reductase [2] = target: T1, Dihydrofolate reductase; experiment: Combined effect of active site mutation F31A and F34A on inhibitory effect for murine Wild-type dihydrofolate reductase (DHFR)
Dihydrofolate reductase [3] = target: T2, Dihydrofolate reductase (Mus musculus, UniProt P00375); experiment: Inhibitory constant for F31A/F34A murine dihydrofolate reductase (DHFR)
T2 sequence (P00375 whole entry): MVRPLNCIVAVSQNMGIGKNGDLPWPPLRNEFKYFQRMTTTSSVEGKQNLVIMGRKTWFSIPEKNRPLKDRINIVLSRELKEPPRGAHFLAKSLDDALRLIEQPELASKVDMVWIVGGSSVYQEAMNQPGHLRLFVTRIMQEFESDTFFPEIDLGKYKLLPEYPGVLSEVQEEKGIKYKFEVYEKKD

[4] = target: T3, Dihydrofolate reductase (Mus musculus) (UniProt P00375)
T3 sequence (whole entry): T2 sequence (P00375 whole entry)

Dihydrofolate reductase [5] = target: T2, Dihydrofolate reductase; experiment: Inhibitory constant for murine Wild-type dihydrofolate reductase (DHFR)

Ki·kcat/Km (Dihydrofolate reductase [1]) | Ki·kcat/Km (Dihydrofolate reductase [2]) | Ki (Dihydrofolate reductase [3]) | Kimut/Kiwt [4] | Ki (Dihydrofolate reductase [5]) | Structure (SMILES)
0.112 s⁻¹ | 0.00126 s⁻¹ | 212 nM | 4410 | – | CN(Cc1cnc2nc(N)nc(N)c2n1)c1ccc(C(=O)NC(CCC(=O)NCCCCCCCCCCCCNC(=O)CCC(NC(=O)c2ccc(N(C)Cc3cnc4nc(N)nc(N)c4n3)cc2)C(=O)O)C(=O)O)cc1 (centres undefined)
0.00043 s⁻¹ | 0.00158 s⁻¹ | 0.81 nM | 13.5 | 0.06 nM | COc1cc(NCc2ccc3nc(N)nc(N)c3c2C)cc(OC)c1OC [TRIMETREXATE]
